# Results reported in patent US11883423B2, “Nucleobase analogue derivatives and their applications” (BOARD OF REGENTS, THE UNIVERSITY OF TEXAS SYSTEM, priority 2014, dated 2024).
# Columns and labels:
# [1] = Biodistribution in TC-1 tumor-bearing mice; type: in vivo, C57BL/6 mice; settings: 90 min after i.v. 75 mg/kg
# Procedure: A biodistribution study was carried out in TC-1 tumor-bearing C57BL/6 mice. When tumor diameters reached 7-8 mm (i.e., about 4 weeks after tumor cell injection), mice were injected via the tail vein with a Gem-DHA solution (75 mg/kg). Ninety minutes later, mice were euthanized to collect tumors and major organs (e.g., liver, kidneys, spleen, lung, heart, and pancreas). Tissues were homogenized, and Gem-DHA was extracted using ethyl acetate as mentioned above and analyzed using HPLC.
# [2] = Aqueous solubility by the indirect method (IPM/water partitioning, Beall et al.); type: physicochemical
# Procedure: The aqueous solubility of Gem-DHA was determined following an indirect method according to Beall et al. with minimal modifications (Beall HD et al. International Journal of Pharmaceutics. 1993, 93, 37-47). Briefly, an excess amount of Gem-DHA was added to 100 μl of IPM in a crimp-sealed amber glass vials under nitrogen and was stirred vigorously at room temperature for 24 h, protected from light. After the stirring was stopped, the mixture was left to stand for an additional 24 h for equilibration. The content of the vial was centrifuged (14,000 rpm, 10 min) and the supernatant was transferred into a different tube. Aliquots of the saturated IPM solution were used to measure the Gem-DHA concentration before partitioning (A1) using HPLC (after proper dilution with methanol). Then, water was added to the IPM saturated solution in a volume ratio of 10:1. The two phases were mixed by vortexing for 5 min, left to stand for 15 min, then centrifuged (14,000 rpm, 15 min) to collect the IPM layer. Gem-DHA concentration in the IPM layer (A2) was again measured using HPLC after partitioning. The following equation was used to calculate the partition coefficient (KIPM/water) (Beall HD et al. International Journal of Pharmaceutics. 1993, 93, 37-47):
# [formula] where Vwater is the volume of the water phase and VIPM is the volume of IPM. The value of (Vwater/VIPM) was 10.
# The aqueous solubility (Sw) of Gem-DHA was determined using the following equation (Id.):
# [formula] where SIPM is the solubility of Gem-DHA in IPM.
# In order to validate the method of Beall et al. (Id.), the aqueous solubility of 4-(N)-stearoyl gemcitabine, another lipophilic gemcitabine conjugate (Sloat BR et al. Int J Pharm. 2011, 409(1-2), 278-288), which is stable in water, was measured directly (i.e., direct method) or using the indirect method reported by Beall et al. (Beall HD et al. International Journal of Pharmaceutics. 1993, 93, 37-47).
# Panc-02 tumor cells = test: Cytotoxicity after 4 h co-incubation, MTT test; type: cell-based, mouse; settings: Panc-02 cells, at 60 μM
# Procedure: The mechanisms underlying the cytotoxicity of the Gem-DHA may be different from that of gemcitabine. For example, in cell culture studies, Panc-02 cells were seeded into 96-well plates (1,500 cells per well) and incubated at 37° C., 5% CO2 for 24 h. They were then co-incubated with various concentrations of Gem-DHA, gemcitabine HCl alone, or DHA alone for 4 h, and cell viability was determined using an MTT test.
# [3] = tested on: TC-1 mouse lung cancer cells; test: Anti-proliferative activity, MTT assay, TC-1 cells; type: cell-based; settings: 24 h
# Procedure: (§1) The anti-proliferative activity of Gem-DHA was evaluated in Panc-02, TC-1, Panc-1-Luc, and BxPC-3 cell lines. For Panc-02 and TC-1 cells, cells (1,500/well for Panc-02 and 3,000/well for TC-1) were seeded in 96-well plates and incubated at 37° C. and 5% CO2 overnight. The cells were then treated with various concentrations of Gem-DHA or other compounds for 24 h. For BxPC-3 and Panc-1-Luc cells, 3,000 and 1,000 cells/well were used, respectively, and cells were co-incubated with the Gem-DHA for 72 h. Cell viability was determined using an MTT assay as previously described (Naguib YW et al. Mol Pharm. 2014, 11(4), 1239-1249). Gemcitabine HCl was dissolved in cell culture medium, whereas Gem-DHA and DHA were dissolved in dimethylsulfoxide (DMSO). The values of IC50 were calculated using GraphPad Prism (GraphPad software, Inc., La Jolla, CA).
# [4] = tested on: Panc-1-Luc human pancreatic cells; test: Anti-proliferative activity, MTT assay, Panc-1-Luc cells; type: cell-based; settings: 72 h
# Procedure: as §1
# TC-1 tumors = test: Antitumor activity against s.c. TC-1 tumors in C57BL/6 mice; type: in vivo; settings: i.p., 50 mg/kg, every 3-4 days, 4 times
# Procedure: Therefore, the in vivo antitumor activity of Gem-DHA against TC-1 tumor cells was also evaluated. In the mouse model with TC-1 tumors, 5×10^5 cells were s.c. injected in the right flank of female C57BL/6 mice (Charles River, 6-8 weeks). Eight days later, mice were randomized into 3 groups (n=5-6) and i.p. injected with Gem-DHA (50 mg/kg, −0.087 mmole/kg), gemcitabine HCl (26.1 mg/kg, ˜0.087 mmole/kg), or left untreated as a control. Treatments were repeated every 3-4 days for a total of 4 times. Tumor growth was monitored and tumor volume was calculated as mentioned above. […] Shown in FIG. 14B are the body weights of TC-1 tumor-bearing mice after they were treated with multiple doses of Gem-DHA.
# Panc-02 cells = test: Cytotoxicity, LDH assay, Panc-02 cells; type: cell-based, mouse; settings: 48 h
# Procedure: The cytotoxic activity of Gem-DHA was also evaluated using an LDH assay kit (Takara Clontech). Panc-02 cells were seeded in 96-well plates at 1,500 cells/well and incubated at 37° C. and 5% CO2 for 24 h, followed by treatment with Gem-DHA or gemcitabine HCl as mentioned above for 48 h. LDH activity in the cell culture medium was determined following the manufacturer's instruction.
structure (smiles),measurement,setting,value
"CC/C=C\C/C=C\C/C=C\C/C=C\C/C=C\C/C=C\CCC(=O)Nc1ccn(C2OC(CO)C(O)C2(F)F)c(=O)n1 (centres unmarked) [Gem-DHA, 4-(N)-Docosahexaenoyl Difluorodeoxycytidine]",Distribution among organs,[1],high percent of the injected Gem-DHA was in mouse pancreas
same,KIPM/water (partition coefficient),[2],194.72 ± 111.3
same,"Stability in IPM, remaining","[2]; buffer, 48 h",> 92%
same,Cytotoxicity after 4 h of co-incubation,Panc-02 tumor cells,significant cytotoxicity
same,Inhibition of tumor cell growth (comparison),[3],more effective than gemcitabine alone or the physical mixture of gemcitabine and DHA
same,Inhibition of tumor cell growth (comparison),[4],more effective than gemcitabine alone or the physical mixture of gemcitabine and DHA
same,Control of growth of s.c. TC-1 tumors,TC-1 tumors,more effective than a molar equivalent dose of gemcitabine HCl
same,"Cytotoxicity, LDH assay (comparison)",Panc-02 cells,more cytotoxic than gemcitabine HCl
